Results taken from publication PMC9228811, “Identification and Characterization of a Potential Antimicrobial Peptide Isolated from Soil Brevibacillus sp. WUL10 and Its Activity against MRSA Pathogens” (Tropical Medicine and Infectious Disease, 2022).
Values after ≈ are worked out from the molar mass of the structure shown. Like-named read-outs stand apart in the source and are kept apart here. No end group written: not given here.

How the values were obtained:
MRSA isolate 1096 [1] = assay: Agar well diffusion assay; format: cell-based, Staphylococcus aureus; details: Table 1 experiment, mean ± SD, n = 3
Description: (§1) WUL10 colony was inoculated in 50 mL of half formula of Luria-Bertani (half LB) broth (Titan Biotech Ltd., Rajasthan, India), and incubated at 30 °C, 150 rpm overnight. The culture was adjusted the turbidity equivalent to 0.5 McFarland standard by 0.85% NaCl, and then, 2 mL of this preculture was transferred in 200 mL of half LB broth. The culture was shaken at 30 °C, 150 rpm for 7 days, and an aliquot of samples (2 mL) was collected at different time interval. One mL of sample was measured the cell growth by spectrophotometer at 625 nm (Thermo Fisher Scientific, Waltham, MA, USA). The remaining sample was centrifuged at 10,000× g, 4 °C for 30 min (Sigma-Aldrich Co., St. Louis, MO, USA), and the CFS was examined for the antimicrobial activity against all indicator strains by agar well diffusion assay. Three replicates of experiments were carried out, and the zone of inhibition was reported as mean ± SD.
(§2) The colonies of indicator strains were inoculated in 9 mL of sterile 0.85% NaCl, and the cell suspensions were adjusted the turbidity comparably to 0.5 McFarland standard. They were swabbed onto the MH agar, and the wells were punched onto the agar using a pipette tip. One hundred µL of CSF or purified substance of WUL10 was loaded into each well, and the plates were incubated at 37 °C for 24 h. […] The experiments were performed in three independent experiments, and the inhibition zone was measured and reported as mean ± SD [21].

MRSA isolate 142 [2] = assay: Agar well diffusion assay; format: cell-based, Staphylococcus aureus; details: Table 1 experiment, mean ± SD, n = 3
Description: as §1, §2

MRSA isolate 2468 [3] = assay: Agar well diffusion assay; format: cell-based, Staphylococcus aureus; details: mean ± SD, n = 3
Description: as §1, §2

S. aureus TISTR 517 [4] = assay: Agar well diffusion assay; format: cell-based, Staphylococcus aureus; details: mean ± SD, n = 3
Description: as §1, §2

S. aureus TISTR 517 [5] = assay: microbe, parasite or virus in culture; format: cell-based, Staphylococcus aureus
Description: (§3) Determination of MIC by broth microdilution was followed the Clinical and Laboratory Standard Institute (CLSI) guidelines. Cation-adjusted Mueller–Hinton broth (CAMHB) was used as a diluent. The purified substance (100 μL) was prepared by making the 2-fold dilution in the range of 0.125–32 μg/mL, and an aliquot (10 μL) of diluted suspension of the indicator strains (5 × 10^5 CFU/mL) was added into each well. Indicator strains without sample were a positive control, while CAMHB alone was the negative control. The 96-well plates were incubated at 37 °C for 24 h and measured the bacterial growth. […] MBC was determined by further spreading 10 µL of sample in each well on MH agar and incubated at 37 °C overnight.
(§4) The peptide sequence of the purified substance of WUL10 was analyzed by the Q-Exactive HF LC-MS/MS Orbitrap system. Briefly, the protonated peptides were first desalted on-line on a reverse-phase C18 PepMap 100 trapping column before being resolved onto a C18 PepMap 100 capillary column with a 70 min gradient of 0.1% HCO2H/H2O (mobile phase (MP): A) and 0.1% HCO2H/CH3CN (MP: B) at a flow rate of 300 nL/min. Peptides were analyzed by applying a data-dependent Top5 acquisition mode followed by a higher-energy collisional dissociation (HCD) at collision energy of 28. Full-scan (MS) mass spectra were acquired from m/z 400 to 2000 with an AGC target set at 3 × 10^6 ions and a resolution of 120,000. MS/MS scan was initiated when the ACG target reached 2 × 10^5 ions and a resolution of 30,000. The raw LC-MS file from LC-MS/MS was imported to PeakX studio 10.0 (Bioinformatics Solutions Inc., Waterloo, CA, USA). The peptide ion intensity with +2 to +5 charge states was automated de novo peptide sequenced with default parameters with minor modifications. Briefly, mass error tolerance for MS and MS/MS were 15 ppm and 0.1 Da, respectively. HCD-fragmentation series on b- and y-ion series were used to predict the peptide sequence. The confidence score was set at the high level of confidence to obtain a reliable set of high-precision peptides. The acceptable de novo peptide sequences were achieved by filtering average local confidence (ALC) to ≥50%. The acceptable peptide sequences with an average local confidence (ALC) threshold of ≥50% were submitted to the antimicrobial peptide scanner to analyze the probability of antimicrobial peptides. A number of resulting peptides (18 synthetic peptides) were synthesized by Kelowna International Scientific Inc. (Taipei City, Taiwan) with purity of more than 85%, and they were prepared in a 2-fold dilution with CAMHB before examining the antimicrobial activity by broth microdilution. MIC and MBC were measured from 3 independent replicates.

MRSA isolate 2468 [6] = assay: microbe, parasite or virus in culture; format: cell-based, Staphylococcus aureus
Description: as §3, §4

MRSA isolate 1096 [7] = assay: Broth microdilution MIC and MBC (CLSI); format: cell-based; details: Staphylococcus aureus
Description: as §3

MRSA isolate 142 [8] = assay: Broth microdilution MIC and MBC (CLSI); format: cell-based; details: Staphylococcus aureus
Description: as §3

[9] = antibiotic 30 µg, Table 1 experiment
[10] = antibiotic 30 µg, Table 4 experiment
[11] = antibiotic 1 µg, Table 1 experiment
[12] = broth microdilution, CAMHB, 37 °C 24 h, n = 3

Q: What does the source list for `CO[C@@]1(NC(=O)Cc2cccs2)C(=O)N2C(C(=O)O)=C(COC(N)=O)CS[C@@H]21` [Cefoxitin]?
A: Zone of Inhibition (MRSA isolate 1096 [1]; antibiotic 30 µg): 0.00 ± 0.00 mm; Zone of Inhibition (MRSA isolate 142 [2]; antibiotic 30 µg): 0.00 ± 0.00 mm; Zone of Inhibition (MRSA isolate 2468 [3]; [9]): 0.00 ± 0.00 mm; Zone of Inhibition (S. aureus TISTR 517 [4]; [9]): 32.68 ± 0.15 mm; Zone of Inhibition (S. aureus TISTR 517 [4]; [10]): 32.77 ± 0.55 mm; MIC (S. aureus TISTR 517 [5]; Staphylococcus aureus, TISTR517, broth microdilution, CAMHB, 37 °C 24 h, n = 3, read-out: MIC): 2 µg/mL (≈ 4.68 µM)

Q: Which results are given for `Cc1onc(-c2ccccc2)c1C(=O)N[C@@H]1C(=O)N2[C@@H]1SC(C)(C)[C@@H]2C(=O)O` [Oxacillin]?
A: Zone of Inhibition (MRSA isolate 1096 [1]; antibiotic 1 µg): 0.00 ± 0.00 mm; Zone of Inhibition (MRSA isolate 142 [2]; antibiotic 1 µg): 0.00 ± 0.00 mm; Zone of Inhibition (MRSA isolate 2468 [3]; [11]): 0.00 ± 0.00 mm; Zone of Inhibition (S. aureus TISTR 517 [4]; [11]): 29.29 ± 0.39 mm

Q: How did the “Zone of Inhibition” value (MRSA isolate 2468 [3]; [10]) turn out when `CN[C@H](CC(C)C)C(=O)N[C@H]1C(=O)N[C@@H](CC(N)=O)C(=O)N[C@H]2C(=O)N[C@H]3C(=O)N[C@H](C(=O)N[C@H](C(=O)O)c4cc(O)cc(O)c4-c4cc3ccc4O)[C@H](O)c3ccc(c(Cl)c3)Oc3cc2cc(c3O[C@@H]2O[C@H](CO)[C@@H](O)[C@H](O)[C@H]2O[C@H]2C[C@](C)(N)[C@H](O)[C@H](C)O2)Oc2ccc(cc2Cl)[C@H]1O` [Vancomycin] was run?
A: The value was 26.75 ± 0.18 mm.

Q: What about the MBC (MRSA isolate 2468 [6]; Staphylococcus aureus) of the same compound?
A: Its MBC is 2 µg/mL (≈ 1.38 µM).

Q: What about the MIC (MRSA isolate 2468 [6]; Staphylococcus aureus, 24 h) of the same compound?
A: Its MIC is 2 µg/mL (≈ 1.38 µM).

Q: And the MBC (S. aureus TISTR 517 [5]; Staphylococcus aureus, TISTR517)?
A: The MBC was 2 µg/mL (≈ 1.38 µM).

Q: What about the MIC (S. aureus TISTR 517 [5]; Staphylococcus aureus, TISTR517, 24 h) of the same compound?
A: The MIC was 2 µg/mL (≈ 1.38 µM).

Q: And the MBC (MRSA isolate 1096 [7])?
A: Its MBC is 2 µg/mL (≈ 1.38 µM).

Q: And the MIC (MRSA isolate 1096 [7]; 24 h)?
A: Its MIC is 2 µg/mL (≈ 1.38 µM).

Q: And the MBC (MRSA isolate 142 [8])?
A: Its MBC is 2 µg/mL (≈ 1.38 µM).

Q: What about the MIC (MRSA isolate 142 [8]; 24 h) of the same compound?
A: The MIC was 2 µg/mL (≈ 1.38 µM).

Q: Which MIC (MRSA isolate 2468 [6]; [12]) does the source give for KVLVKYLGGLLKLAALMV [synthetic peptide] here?
A: The MIC was 16 µg/mL.

Q: And the MIC (S. aureus TISTR 517 [5]; [12])?
A: The MIC was 16 µg/mL.
